Results: PMC3592791, “Fluorescence-Based High-Throughput Functional Profiling of Ligand-Gated Ion Channels at the Level of Single Cells” (PLoS ONE, 2013)

Experiments:
[1] = molecular target: T1, α2β GlyR (Homo sapiens, UniProt P23416+P48167); type: cell-based; details: drugs at 10 and 100 µM, Fig. 6A
T1 construct: expressed in transfected cells; host or cells: HEK293
Method: (§1) plated into 60-mm culture dishes and were transfected when approx. 80% confluent. YFP and GlyR chloride channel subunits were transfected in 1∶1 (YFP and α1-3 GlyR homomers) or 2∶1∶1 ratio (YFP, GlyR α1-3 homo and α1-3β GlyR heteromers) with a total cDNA quantity of 1 µg. Cells were transfected using calcium phosphate precipitation transfection technique, as described in Sambrook et al.. […] We have published a detailed comparison of five transient transfection methods employed routinely in the laboratory for this purpose.
(§2) The human α1, α2 and α3 GlyR plasmid DNAs were subcloned into the pcDNA3.1 plasmid vector and the human β subunit plasmid DNA was subcloned into pIRES2-EGFP plasmid vector. The UniprotKB accession numbers for the DNAs are as follows (with gene name in brackets): α1 (GLRA1): P23415, α2 (GLRA2): P23416, α3 (GLRA3): O75311 and β(GLRB): P48167.
(§3) Following termination of transfection, cells were trypsinized by adding 0.7 mL of 0.25% trypsin–EDTA solution (Gibco BRL), resuspended into DMEM, and 2.5×10^3 cells, suspended in 40 µL DMEM, were plated into each well of a transparent 384-well plate for fluorescence imaging experiments. Cells were used in experiments 24 h later. Individual wells typically contained 5×10^3 cells at the time of the experiment. Approximately 1 h prior to commencement of experiments culture media in 384-well plates were removed by turning the plate upside-down onto a stack of tissue and were left for approximately 30 sec until culture media was entirely removed from the wells. The culture media was replaced by 20 µL standard control solution, which contained (in mM) NaCl 140, KCl 5, CaCl2 2, MgCl2 1, HEPES 10, and glucose 10 (pH 7.4) using NaOH. […] For drug screening experiments agonist solutions were supplemented with strychnine (10, 30, 100 µM), picrotoxin (10, 100 µM) and lindane (10, 100 µM) respectively. Drugs were diluted from stocks in agonist solution according to desired final concentrations. […] Experiments were conducted at room temperature (19–22°C).
(§4) The maximum image acquisition rate was 1.25 Hz. Solutions containing agonist and drug were pipetted into a 384-well plate and placed onto LC PAL sample holder platform. Liquid handling was performed with the autosampler described above. Solutions were applied to cells at a rate of 0.6 ml/min.
(§5) Images of fluorescent cells were segmented and quantitatively analyzed using a modified version of DetecTIFF® software. In brief, images were segmented using an iterative size and intensity-based thresholding algorithm and the fluorescence signal of identified cells was calculated as the mean of all pixel values within the area of a cell.
(§6) This VI uses the Levenberg-Marquardt algorithm to determine the set of parameters that best fit the set of input data points (X, Y) as expressed by the nonlinear function: [drawing 1] where a is the set of parameters. The curve model is defined by the following equation: […]

[2] = molecular target: T2, α2 GlyR (Homo sapiens, UniProt P23416); type: cell-based
T2 construct: expressed in transfected cells; host or cells: HEK293
T2 sequence (P23416 28-452): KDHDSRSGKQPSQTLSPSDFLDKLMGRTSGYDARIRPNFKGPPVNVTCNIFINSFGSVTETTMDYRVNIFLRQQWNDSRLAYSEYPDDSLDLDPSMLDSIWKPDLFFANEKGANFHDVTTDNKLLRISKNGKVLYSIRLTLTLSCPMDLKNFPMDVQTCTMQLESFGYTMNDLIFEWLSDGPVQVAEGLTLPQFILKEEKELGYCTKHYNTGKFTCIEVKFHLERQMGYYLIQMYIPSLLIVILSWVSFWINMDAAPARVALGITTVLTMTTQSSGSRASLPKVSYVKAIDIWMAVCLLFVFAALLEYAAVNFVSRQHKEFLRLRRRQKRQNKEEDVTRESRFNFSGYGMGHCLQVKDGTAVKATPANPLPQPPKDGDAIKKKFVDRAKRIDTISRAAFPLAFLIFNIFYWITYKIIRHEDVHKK
Method: as §1, §2, §3, §4, §5, §6

[3] = molecular target: T3, α3β GlyR (Homo sapiens, UniProt O75311+P48167); details: read-out: Median half-maximal activation by glycine (EC50), control conditions; no drug, Fig. 4F, n = 122
T3 sequence (P48167 23-497, one chain of several): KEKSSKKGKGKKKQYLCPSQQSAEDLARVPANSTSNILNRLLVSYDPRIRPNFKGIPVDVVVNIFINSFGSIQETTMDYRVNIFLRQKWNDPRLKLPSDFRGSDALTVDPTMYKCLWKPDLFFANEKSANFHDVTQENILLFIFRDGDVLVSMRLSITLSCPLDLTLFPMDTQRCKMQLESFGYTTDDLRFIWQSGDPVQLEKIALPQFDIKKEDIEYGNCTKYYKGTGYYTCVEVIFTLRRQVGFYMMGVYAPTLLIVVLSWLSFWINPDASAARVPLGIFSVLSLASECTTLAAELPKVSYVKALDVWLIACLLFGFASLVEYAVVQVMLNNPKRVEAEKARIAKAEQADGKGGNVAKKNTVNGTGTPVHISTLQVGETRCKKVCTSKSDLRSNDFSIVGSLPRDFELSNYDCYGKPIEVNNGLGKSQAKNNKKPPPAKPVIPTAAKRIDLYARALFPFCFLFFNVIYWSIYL
Method: plated into 60-mm culture dishes and were transfected when approx. 80% confluent. YFP and GlyR chloride channel subunits were transfected in 1∶1 (YFP and α1-3 GlyR homomers) or 2∶1∶1 ratio (YFP, GlyR α1-3 homo and α1-3β GlyR heteromers) with a total cDNA quantity of 1 µg. Cells were transfected using calcium phosphate precipitation transfection technique, as described in Sambrook et al. [37]. Transfection efficiency varies from 20 to 60%. We routinely achieve a correlation of 80 to 90% between cells expressing YFP and cells expressing GlyRs. […]
Following termination of transfection, cells were trypsinized by adding 0.7 mL of 0.25% trypsin–EDTA solution (Gibco BRL), resuspended into DMEM, and 2.5×10^3 cells, suspended in 40 µL DMEM, were plated into each well of a transparent 384-well plate for fluorescence imaging experiments. […]
(§9) Images of fluorescent cells were segmented and quantitatively analyzed using a modified version of DetecTIFF® software [40]. In brief, images were segmented using an iterative size and intensity-based thresholding algorithm and the fluorescence signal of identified cells was calculated as the mean of all pixel values within the area of a cell.
• Goodness of fit (R^2, ≥0.9), to include curve fits that represent the data points to a high degree. • Dynamic range of fluorescence change (ΔF, 20–100%), to include cells co-expressing both, YFPI152L and GlyRs. […]

[4] = molecular target: T4, α1 GlyR (Homo sapiens, UniProt P23415); type: cell-based
T4 construct: expressed in transfected cells; host or cells: HEK293
T4 sequence (P23415 29-457): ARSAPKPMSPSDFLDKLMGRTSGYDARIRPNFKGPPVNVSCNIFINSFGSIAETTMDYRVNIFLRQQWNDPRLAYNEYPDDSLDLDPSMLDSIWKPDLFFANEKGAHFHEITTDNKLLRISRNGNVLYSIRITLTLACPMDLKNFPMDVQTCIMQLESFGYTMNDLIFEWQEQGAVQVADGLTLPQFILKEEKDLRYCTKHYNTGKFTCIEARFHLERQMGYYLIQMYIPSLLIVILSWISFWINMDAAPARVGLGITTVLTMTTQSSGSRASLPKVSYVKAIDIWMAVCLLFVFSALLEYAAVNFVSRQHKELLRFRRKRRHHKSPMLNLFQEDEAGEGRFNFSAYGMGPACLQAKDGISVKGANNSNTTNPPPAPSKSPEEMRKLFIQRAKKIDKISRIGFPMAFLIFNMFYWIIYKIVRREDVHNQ
Method: as §1, §2, §3, §4, §5, §6

[5] = molecular target: T5, α3 GlyR (Homo sapiens, UniProt O75311); details: Fig. 3A
T5 sequence (O75311 34-464): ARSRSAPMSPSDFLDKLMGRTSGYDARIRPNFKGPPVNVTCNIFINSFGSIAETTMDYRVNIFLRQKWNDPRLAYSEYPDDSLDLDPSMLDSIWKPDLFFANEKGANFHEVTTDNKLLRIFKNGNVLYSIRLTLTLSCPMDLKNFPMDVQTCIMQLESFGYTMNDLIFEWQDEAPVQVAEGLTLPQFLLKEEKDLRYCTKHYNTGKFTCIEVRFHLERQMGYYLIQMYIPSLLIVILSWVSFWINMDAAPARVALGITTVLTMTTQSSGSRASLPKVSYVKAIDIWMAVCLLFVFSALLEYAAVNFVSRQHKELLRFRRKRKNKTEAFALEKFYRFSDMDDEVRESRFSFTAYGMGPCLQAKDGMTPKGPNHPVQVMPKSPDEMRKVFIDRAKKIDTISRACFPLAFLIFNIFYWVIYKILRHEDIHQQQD
Method: plated into 60-mm culture dishes and were transfected when approx. 80% confluent. YFP and GlyR chloride channel subunits were transfected in 1∶1 (YFP and α1-3 GlyR homomers) or 2∶1∶1 ratio (YFP, GlyR α1-3 homo and α1-3β GlyR heteromers) with a total cDNA quantity of 1 µg. Cells were transfected using calcium phosphate precipitation transfection technique, as described in Sambrook et al. [37]. Transfection efficiency varies from 20 to 60%. We routinely achieve a correlation of 80 to 90% between cells expressing YFP and cells expressing GlyRs.
Following termination of transfection, cells were trypsinized by adding 0.7 mL of 0.25% trypsin–EDTA solution (Gibco BRL), resuspended into DMEM, and 2.5×10^3 cells, suspended in 40 µL DMEM, were plated into each well of a transparent 384-well plate for fluorescence imaging experiments. Cells were used in experiments 24 h later. Individual wells typically contained 5×10^3 cells at the time of the experiment. Approximately 1 h prior to commencement of experiments culture media in 384-well plates were removed by turning the plate upside-down onto a stack of tissue and were left for approximately 30 sec until culture media was entirely removed from the wells. […]
as §9
• Goodness of fit (R^2, ≥0.9), to include curve fits that represent the data points to a high degree. • Dynamic range of fluorescence change (ΔF, 20–100%), to include cells co-expressing both, YFPI152L and GlyRs.
Filter ranges for enrichment of functional data were determined empirically by biological relevance.

[6] = molecular target: T5, α3 GlyR; experiment: Whole-cell patch-clamp electrophysiology, α3 GlyR; type: cell-based; set-up: expressed in transfected cells; host or cells: HEK293; details: read-out: % block of EC50 glycine current; 100 µM lindane, HEK293 cells, -40 mV, 4–7 cells, Fig. 5B
Method: (§7) Cells were transfected as described above and plated onto glass coverslips in 3 cm culture dishes. Coverslips containing cells were placed in a recording chamber on the stage of an inverted fluorescent microscope and currents were recorded using the whole-cell patch-clamp configuration. Cells were perfused by extracellular solution containing (in mM): 140 NaCl, 5 KCl, 2 CaCl2, 1 MgCl2, 10 HEPES/NaOH and 10 glucose (pH 7.4 adjusted with NaOH). Patch pipettes were fabricated from borosilicate hematocrit tubing (Hirschmann Laborgeraete, Eberstadt, Germany) and heat polished. […] After establishment of the whole-cell recording configuration, cells were voltage clamped at −40 mV and membrane currents were recorded using an Axopatch 1D and pClamp 10 software (Molecular Devices). Currents were filtered at 500 Hz and digitized at 2 KHz.
(§8) Because αsubunits can form functional receptors with or without β subunits, it was necessary to confirm that the expressed receptors incorporated β subunits. As the GlyR β subunit cDNA was cloned into the pIRES2-EGFP plasmid vector, we used green fluorescent protein fluorescence to identify cells transfected with the GlyR β subunit. The successful incorporation of β subunits into functional heteromeric GlyRs was also confirmed pharmacologically by their characteristic reduction in […] sensitivity as described below.

[7] = molecular target: T2, α2 GlyR; experiment: Whole-cell patch-clamp electrophysiology, α2 GlyR; type: cell-based; details: read-out: % block of EC50 glycine current; 100 µM lindane, HEK293 cells, -40 mV, 4–7 cells, Fig. 5B
Method: as §7, §8

[8] = molecular target: T3, α3β GlyR; experiment: Whole-cell patch-clamp electrophysiology, α3β GlyR; type: cell-based; set-up: expressed in transfected cells; host or cells: HEK293; details: read-out: % block of EC50 glycine current; 100 µM lindane, HEK293 cells, -40 mV, 4–7 cells, Fig. 5B
Method: as §7, §8

[9] = molecular target: T1, α2β GlyR; experiment: Whole-cell patch-clamp electrophysiology, α2β GlyR; type: cell-based; details: read-out: % block of EC50 glycine current; 100 µM lindane, HEK293 cells, -40 mV, 4–7 cells, Fig. 5B
Method: as §7, §8

T1 sequence (P48167 23-497, one chain of several): as the sequence (P48167 23-497, one chain of several) above

picrotoxin
Effect on receptor (color map of median glycine EC50) [1]: no inhibition | Effect on receptor (color map of median glycine EC50) ([2]; drugs at 10 and 100 µM, Fig. 6A): overall less block of homomeric α2 GlyRs by picrotoxin compared to lindane

O=C1C[C@@H]2OCC=C3CN4CC[C@]56c7ccccc7N1[C@H]5[C@H]2[C@H]3C[C@H]46 [strychnine]
Effect on receptor (color map of median glycine EC50) [1]: inhibition

NCC(=O)O [glycine]
EC50 [3]: 46.8 ± 4 µM | Slope value, averaged [2]: 2.92±0.09 | Slope values, range over single cells [2]: 0.51–4.73 | Slope value, averaged [4]: 1.19±0.03 | Slope values, range over single cells [4]: 0.47–1.92 | Slope value, averaged ([5]; glycine dose-response): 0.91±0.03 | Slope values, range over single cells ([5]; glycine dose-response): 0.39–3.43 | EC50 ([5]; read-out: Averaged glycine EC50, HEK293 cells, individual well, n = 212 cells): 186 ± 17 µM

Cl[C@H]1[C@H](Cl)[C@@H](Cl)[C@@H](Cl)[C@H](Cl)[C@H]1Cl [lindane, γ-hexachlorocyclohexane]
inhibition at 100 µM [6]: 96 ± 4% | inhibition at 100 µM [7]: 94 ± 5% | inhibition at 100 µM [8]: 14 ± 3% | Effect on receptor (color map of median glycine EC50) [1]: no inhibition | inhibition at 100 µM [9]: 23 ± 4%
